{"source": "patent US7396645B1", "about": "“Cholestasis signature” (priority 2002, dated 2008)", "key": {"male Sprague-Dawley rats": {"tested_on": "male Sprague-Dawley rats", "conditions": "rat", "description": "Compound dosing was based on the acute dose LD50s recorded in published reference or literature sources. […] The MTD (maximum tolerated dose) was then selected as the dose at which the animals […] 5-10% body weight during the 5-day range finding study. […] In addition, the clinical observations must show no or mild clinical signs during the whole of the range-finding study. At the next highest dose, signs and symptoms of adverse effects and exceeding those of the MTD should be seen to occur. Should these criteria not be met, the range-finding study is repeated using a modified dose range.\n(§1) After determination of the MTD and FED for a compound, each compound was dissolved in a vehicle for administration on day 1 of the study (additional daily doses were stored as frozen aliquots from this initial formulation). Each compound was administered to three individual male Sprague-Dawley rats for each of the two doses (MTD and FED) for one of four different times (0.25 day, 1 day, 3 days, and 5 days), yielding a total of up to 24 animals per compound study. Vehicle choice was based on solubility of the compound, effect of food on adsorption, and the vehicles used in the literature reports examined during the FED selection investigations, described above. Generally, the route and vehicle in which the FED was defined are used. When there was a choice of routes and vehicles, oral routes were chosen over injection routes. Many compounds, especially oncolytics, are only administerable intravenously. In such cases, the compound was administered as an intravenous formulation into the tail vein. Orally administered compounds were given dissolved in either water, 1% carboxymethycellulose (CMC) or corn oil. Intravenously and intraperitoneally administered compounds were given in 0.9% saline. Subcutaneously administered compounds were given in corn oil. Animal body weights were determined at 1 day and, where appropriate, at 4 days, before necropsy, and clinical observations were made on a daily basis. Control animals were dosed with vehicle only. Three male animals were used for each dose and time combination used for the compound treatment.\n(§2) Tissue Harvest and Handling: After the allocated treatment time, the tissues from the animals were harvested. […] All the tissues collected were divided to provide samples for histopathological analyses, and the remainder of each tissue was then snap-frozen. […] The parameters were measured using a Hitachi-911 clinical chemistry analysis instrument according to the manufacturer's instructions. The following blood constituents were measured: Blood Urea Nitrogen (BUN), Creatinine (CRE), Glucose (GLU), Alanine Transaminase (ALT), Aspartate Aminotrans-ferase (AST), Alkaline Phosphatase (ALP), Total Bilirubin (TBI), Sodium (SOD), Potassium (POT), Chloride (CHL), Phosphorus (PHO), Total Protein (TPR), Albumin (ALB), Cholesterol (CHO), Creatine Phosphokinase (CPK), Lactate Dehydrogenase (LDH), Carbon Dioxide (CO2), Uric Acid (UA), and Lipase. […] The parameters were measured using a Baker 9000 blood cell analysis instrument according to the manufactures instructions. The following blood constituents were measured: Leukocyte count (WBC), Differential Leukocyte counts, Erythrocyte count (RBC), Hemoglobin concentration (HGB), Hematocrit (HCT), Mean Corpuscular Volume (MCV), Mean Corpuscular Hemoglobin (MCH), Mean Corpuscular Hemoglobin Concentration (MCC), Thrombocyte Count (PLC). Histopathology: Histopathological analyses of hematoxylin and eosin-stained tissue sections were performed and peer-reviewed by board-certified (Diplomate, American College of Veterinary Pathologists) veterinary pathologists."}, "Cholestasis Signature": {"tested_on": "Cholestasis Signature", "description": "as §1\nas §2, with “pathologists. Preparation of Enriched mRNA: Punch Biopsies were Taken from the Frozen Tissues and were completely homogenized before being processed using the MagNA Pure robot. (Roche Diagnostics Corp., Indianapolis, Ind.) in combination with the MagNA Pure LC RNA Isolation kit II (Roche Diagnostics Corp). The amount of lysis buffer was adjusted to allow 1 ml per 50 mg for liver tissue, or 1 ml per 80 mg for all other tissues. After complete homogenization and before loading of the samples into the 32-well MagNA Pure plate, the samples were syringed 5-6 times using a 20-gauge 3-ml syringe to ensure a smooth solution for robotic processing. Tissue sample processing was performed in duplicate wells (loading 150 μl of homogenized sample and 150 μl of additional lysis buffer to each well) of the MagNA Pure LC, which is programmed to extract mRNA using oligo-dT selection technology into a final elution volume of 100 μl.” for “pathologists.”"}, "livers of rats": {"tested_on": "livers of rats", "description": "as §1\nas §2, with “pathologists. Preparation of Enriched mRNA: Punch Biopsies were Taken from the Frozen Tissues and were completely homogenized before being processed using the MagNA Pure robot. (Roche Diagnostics Corp., Indianapolis, Ind.) in combination with the MagNA Pure LC RNA Isolation kit II (Roche Diagnostics Corp). The amount of lysis buffer was adjusted to allow 1 ml per 50 mg for liver tissue, or 1 ml per 80 mg for all other tissues. After complete homogenization and before loading of the samples into the 32-well MagNA Pure plate, the samples were syringed 5-6 times using a 20-gauge 3-ml syringe to ensure a smooth solution for robotic processing. Tissue sample processing was performed in duplicate wells (loading 150 μl of homogenized sample and 150 μl of additional lysis buffer to each well) of the MagNA Pure LC, which is programmed to extract mRNA using oligo-dT selection technology into a final elution volume of 100 μl.” for “pathologists.”"}, "[1]": {"conditions": "16 mg/kg orally in corn oil, 3 days, vs vehicle control, average of 3 animals"}, "[2]": {"conditions": "rat liver expression data vs Cholestasis Signature, maximum score of training treatments normalised to 100, dose and time not given"}, "[3]": {"conditions": "rat liver histopathology, training-set treatments"}, "[4]": {"conditions": "386 mg/kg orally in corn oil, 3 days, vs vehicle control, average of 3 animals"}}, "note": "Read-outs that look alike come from different tables or passages of the source. Marks after values point to notes of the source that are not given here."}
{"smiles": "CC/C(=C(/CC)c1ccc(O)cc1)c1ccc(O)cc1", "note": "[DIETHYLSTILBESTROL, 3,4-bis-(4-hydroxyphenyl)-3-hexene]", "values": [{"measurement": "raised serum levels of ALP and TBI compared with vehicle-treated control animals", "setting": "male Sprague-Dawley rats; in vivo, po", "result": "at least 2 fold"}, {"measurement": "Fold change in serum alkaline phosphatase", "setting": "male Sprague-Dawley rats; in vivo, po, 300 mg/kg", "result": 2.0, "unit": "fold"}, {"measurement": "Fold change in serum alkaline phosphatase and total bilirubin", "setting": "male Sprague-Dawley rats; in vivo, po, 300 mg/kg", "result": 11.5, "unit": "fold"}, {"measurement": "Fold change in serum total bilirubin", "setting": "male Sprague-Dawley rats; in vivo, po, 300 mg/kg", "result": 5.8, "unit": "fold"}, {"measurement": "Sequence Projection Score (SPS)", "setting": "Cholestasis Signature; rat, in vivo", "result": "34*"}, {"measurement": "increased hepatocyte enlargement and increased eosinophilic granular cytoplasm", "setting": "livers of rats; rat, in vivo", "result": "mild to severe"}, {"measurement": "nuclear/cytoplasmic condensation (apoptosis) and/or necrosis in liver", "setting": "livers of rats; rat, in vivo", "result": "mild to moderate"}]}
{"smiles": "O=NN(CCCl)C(=O)NCCCl", "note": "[CARMUSTINE, 1,3-bis(2-chloroethyl)-1-nitrosourea]", "values": [{"measurement": "Fold change in serum alkaline phosphatase", "setting": "male Sprague-Dawley rats; [1]", "result": 1.7, "unit": "fold"}, {"measurement": "Fold change in serum alkaline phosphatase and total bilirubin", "setting": "male Sprague-Dawley rats; [1]", "result": 8.1, "unit": "fold"}, {"measurement": "Fold change in serum total bilirubin", "setting": "male Sprague-Dawley rats; [1]", "result": 4.6, "unit": "fold"}, {"measurement": "Sequence Projection Score (SPS)", "setting": "Cholestasis Signature; [2]", "result": "69*"}, {"measurement": "increased hepatocyte enlargement and increased eosinophilic granular cytoplasm", "setting": "livers of rats; [3]", "result": "mild to severe"}, {"measurement": "nuclear/cytoplasmic condensation (apoptosis) and/or necrosis in liver", "setting": "livers of rats; [3]", "result": "mild to moderate"}, {"measurement": "bile duct hyperplasia", "setting": "livers of rats; rat liver histopathology, training-set treatments, in most animals", "result": "moderate"}]}
{"smiles": "Cc1ccc(C)c(OCCCC(C)(C)C(=O)O)c1", "note": "[GEMFIBROZIL, 5-(2,5-dimethylphenoxy)-2,2-dimethylpentanoic acid]", "values": [{"measurement": "raised serum levels of ALP and TBI compared with vehicle-treated control animals", "setting": "male Sprague-Dawley rats; in vivo, po", "result": "at least 2 fold"}, {"measurement": "Fold change in serum alkaline phosphatase", "setting": "male Sprague-Dawley rats; in vivo, po, 700 mg/kg", "result": 2.1, "unit": "fold"}, {"measurement": "Sequence Projection Score (SPS)", "setting": "Cholestasis Signature; rat, in vivo", "result": "28*"}, {"measurement": "increased hepatocyte enlargement and increased eosinophilic granular cytoplasm", "setting": "livers of rats; rat, in vivo", "result": "mild to severe"}, {"measurement": "nuclear/cytoplasmic condensation (apoptosis) and/or necrosis in liver", "setting": "livers of rats; rat, in vivo", "result": "mild to moderate"}]}
{"smiles": "c1ccc2c(c1)Nc1ccccc1S2", "note": "[PHENOTHIAZINE, 2,3:5,6-dibenzo-1,4-thiazine]", "values": [{"measurement": "Fold change in serum alkaline phosphatase", "setting": "male Sprague-Dawley rats; [4]", "result": "−1.1", "unit": "fold"}, {"measurement": "Fold change in serum alkaline phosphatase and total bilirubin", "setting": "male Sprague-Dawley rats; [4]", "result": 3.4, "unit": "fold"}, {"measurement": "Fold change in serum total bilirubin", "setting": "male Sprague-Dawley rats; [4]", "result": 3.7, "unit": "fold"}, {"measurement": "Sequence Projection Score (SPS)", "setting": "Cholestasis Signature; [2]", "result": "49*"}, {"measurement": "steatosis", "setting": "livers of rats; [3]", "result": "moderate to very severe"}]}
